In PubChem BioAssay (NCI):
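Assay format: 96-well plates, 48-hour exposure. GI50 marks 50% less growth. TGI: total growth inhibition.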

Key:
Experiment in all cases: NCI anticancer screen, dose series, 48 h
[1] = test system: HCC-2998 colon
[2] = test system: HCT-116 colon
[3] = test system: HOP-92 NSCLC
[4] = test system: SNB-19 CNS
[5] = test system: HT29 colon
[6] = test system: IGROV1 ovarian
[7] = test system: OVCAR-5 ovarian
[8] = test system: SF-268 CNS
[9] = test system: COLO 205 colon

Structure (SMILES)	TGI [1]	TGI [2]	TGI [3]	TGI [4]	TGI [5]	TGI [6]	TGI [7]	TGI [8]	TGI [9]	GI50 [1]	GI50 [2]	GI50 [3]	GI50 [4]	GI50 [5]	GI50 [6]	GI50 [7]	GI50 [8]	GI50 [9]
COc1ccc(-c2cc(=O)c3c(O)c(OC)c(OC)c(OC)c3o2)cc1	> 20.4 µM	> 100 µM	> 82.8 µM	> 100 µM	> 100 µM	> 100 µM	> 100 µM	> 100 µM	> 100 µM									
CC1=CCCC2C(C=O)(C1)CC(C)C2(CO)CC/C(=C/CO)CO (stereo not given)	> 100 µM	> 100 µM	87.6 µM		> 100 µM	> 100 µM			> 100 µM									
N#CC1=C(N)NC(=O)NC12Nc1ccccc1N2	> 100 µM	> 100 µM	> 100 µM	> 100 µM	> 100 µM	> 100 µM	> 100 µM	> 100 µM	> 100 µM	> 100 µM	> 100 µM	31.3 µM	> 100 µM	> 100 µM	> 100 µM	> 100 µM	> 100 µM	> 100 µM
Nc1c2ccccc2nc2c(C(=O)Nc3ccc(S(N)(=O)=O)cc3)cccc12	> 100 µM	> 100 µM		> 100 µM	> 100 µM	> 100 µM	> 100 µM	> 100 µM	> 100 µM									
COC(C)C(O)(C(=O)OCC1=CCN2CCC(O)C12)C(C)(C)O (stereo not given)	> 100 µM	> 100 µM	> 100 µM	> 100 µM	> 100 µM	> 100 µM	> 100 µM	> 100 µM	> 100 µM									
O=C1NC2C(O)CCCCC2C12CCCCC2 (stereo not given)		> 100 µM	> 100 µM	> 100 µM	> 100 µM	> 100 µM	> 100 µM	> 100 µM	> 100 µM									
CC(=O)[O-].N.N.N.N.[Co+3].[O-][Cl+3]([O-])([O-])[O-].[OH3+]	> 100 µM	> 100 µM	> 100 µM	> 100 µM	> 100 µM	> 100 µM	> 100 µM	> 100 µM	> 100 µM	> 100 µM	> 100 µM	> 100 µM	> 100 µM	> 100 µM	> 100 µM	> 100 µM	> 100 µM	> 100 µM
O=C1NC(c2ccccc2)C2(C(=O)O)CN(C3CC3)c3cc(N4CCNCC4)c(F)cc3C2N1 (stereo not given)	> 100 µM	> 100 µM	> 100 µM	> 100 µM	> 100 µM	> 100 µM	> 100 µM	> 100 µM	> 100 µM	> 100 µM	> 100 µM	> 100 µM	> 100 µM	> 100 µM	> 100 µM	> 100 µM	> 100 µM	> 100 µM
C[CH2][Sn]([CH2]C)([O]C(=O)c1ccc(F)cc1)[O]C(=O)c1ccc(F)cc1	> 100 µM	> 55.8 µM	26 µM	30.5 µM	> 100 µM	> 100 µM	> 77.2 µM	33.5 µM	39.6 µM	90.9 µM	33 µM	12.7 µM	16.7 µM	63.8 µM	> 80.5 µM	30.5 µM	17.9 µM	20.3 µM
O=C([O-])CC(=O)[O-].[NH-][C@@H]1CCCC[C@H]1[NH-].[Pt+4]	> 100 µM	> 100 µM	> 100 µM	> 100 µM	> 100 µM	> 100 µM	> 100 µM	> 100 µM	> 100 µM	18.9 µM	4.84 µM	> 100 µM	32.1 µM	6.13 µM	33.5 µM	> 63.9 µM	59.1 µM	54 µM
CC[PH+](CC)CC.[Cl][Au]	12 µM	3.59 µM	2.72 µM	6.14 µM	8.96 µM	7.15 µM	28.5 µM	3.35 µM	5.79 µM	6.78 µM	1.84 µM	1.28 µM	2.26 µM	3.84 µM	2.64 µM	15.2 µM	1.51 µM	1.85 µM
C1=CCCC=CCC1.C[PH+](C)C.C[PH+](C)C.C[PH+](C)C.[Cl-].[Ir]	> 100 µM	> 100 µM	98.8 µM		> 100 µM	> 100 µM	> 100 µM			91.4 µM	42.9 µM	28.6 µM		47.6 µM	36.3 µM	> 100 µM		
c1ccc(OC2=NC3=S(S2)SC(Oc2ccccc2)=N3)cc1	35.2 µM	33.4 µM		45.1 µM	40.2 µM	44.7 µM	41.9 µM	57.6 µM	37.2 µM									
COc1cc2c3c(n(CCCNCCCN)c(=O)c2cc1OC)-c1cc2c(cc1C3=O)OCO2		5.32 µM	11.2 µM	11.6 µM	13.6 µM	18.9 µM	12.6 µM	10.5 µM			1.34 µM	1.36 µM	1.52 µM	1.7 µM	2.69 µM	2.94 µM	1.98 µM	
COC(=O)N/N=C(\C)CC(=O)Nc1ccc(Cl)cc1	> 100 µM	> 100 µM	> 100 µM		> 100 µM	> 100 µM	> 100 µM	> 100 µM	> 100 µM									
